Experimental data reported in US20240016781A1, “TREATMENT OF KRAS MUTANT CANCERS” (MEI Pharma, Inc., priority 2020, published 2024).
Read-outs that look alike come from different tables or passages of the source.

Key:
[1] = test system: Solid Tumors; assay: Monotherapy Phase 1 study in solid tumors, 2 weeks on/1 week off schedule; type: in vivo, human
[2] = test system: cancer cell lines with KRAS mutations (G12A, G12C, G12D, G12S, G12V, G13C, G13D, Q61H); assay: MTS and Cell Titer Glo growth assays in ~20 KRAS mutant cancer cell lines; type: cell-based; details: ~20 cancer cell lines with KRAS mutations
Procedure: (§1) Voruciclib is an oral inhibitor of CDKs 9, 4, 6, and 1 currently being tested in Phase 1B clinical trials for B-cell malignancies and acute myeloid leukemia. Voruciclib inhibition of CDK9 leads to decreased expression of transcriptional targets of RNA Pol II, such as Mcl1 and MYC. To test whether Voruciclib could be effective in cancers driven by dysregulated KRAS-MYC signaling, ˜20 cancer cell lines with KRAS mutations (G12A, G12C, G12D, G12S, G12V, G13C, G13D, Q61H) were treated in preclinical studies with Voruciclib. MTS and Cell Titer Glo assays were used to monitor growth in vitro. […] To investigate MYC protein stability, MIA PACA-2 (G12C) cells were treated with 4 μM Voruciclib for 5-240 min, followed by SDS-PAGE and Western Blotting analysis with α-MYC and α-pSer62-MYC antibodies. […] A 60% decrease in pSer62 was observed after 5 min that reached 80% by 60 min. […] The ability of Voruciclib to inhibit tumor growth in vivo was also tested in murine xenograft models. KRAS mutant human cancer cells HCT-116 (CRC, KRAS G13D), SW-480 (CRC, KRAS G12V), and H-460 (NSCLC, KRAS Q61H) were injected subcutaneously into SCID mice. Once tumors reached 5-10 mm in diameter, Voruciclib or vehicle were administered orally at 50, 100, or 200 mg/kg OD for 11-14 days. Tumors were measured every 2-3 days, and growth inhibition relative to control was calculated. […]

[3] = test system: H-460 (NSCLC, KRAS Q61H); assay: Murine xenograft tumor growth inhibition, H-460; type: in vivo, SCID mice; details: H-460 xenograft; orally 50, 100, or 200 mg/kg OD for 11-14 days; all doses
Procedure: as §1

[4] = test system: HCT-116 (CRC, KRAS G13D); assay: Murine xenograft tumor growth inhibition, HCT-116; type: in vivo, SCID mice; details: HCT-116 xenograft; orally 50, 100, or 200 mg/kg OD for 11-14 days; all doses
Procedure: as §1

[5] = test system: SW-480 (CRC, KRAS G12V); assay: Murine xenograft tumor growth inhibition, SW-480; type: in vivo, SCID mice; details: SW-480 xenograft; orally 50, 100, or 200 mg/kg OD for 11-14 days; all doses
Procedure: as §1

[6] = test system: Relapsed/Refractory B-cell malignancies; Relapsed/Refractory AML; assay: Phase 1 study in R/R B-cell malignancies and AML; type: in vivo, human
Procedure: Study population: Relapsed/Refractory B-cell malignancies; Relapsed/Refractory AML; Dose escalation with standard 3+3 design.
Endpoints: Safety and tolerability, Pharmacokinetics, Biologic correlative studies (BH3 profiling, MCL-1 expression, molecular mutations analysis), Response rates.
Voruciclib single agent dose escalation: 50 mg>100 mg>150 mg>200 mg.
Differentiation syndrome seen in 5 pts (50%) (Increased WBC without increased in blasts, bone pain, pulmonary symptoms; Response to corticosteroids).

[7] = PK of voruciclib, daily dosing continuously (Table 4); type: in vivo; details: human, plasma, oral; for Vd/F: read-out: Vz/F; for half-life: read-out: t½ (converted); for Tmax: median
Description: Voruciclib half life is designated as t½ in the tables (expressed in hours).
Voruciclib volume of distribution is designated as Vz/F (expressed in liters).

[8] = 2 weeks on/i week off schedule, 75 to 850 mg, 29 pts
[9] = Phase 1 monotherapy studies in solid tumors (both schedules)
[10] = 75 mg, Day 1, daily dosing continuously, mean
[11] = 75 mg, Day 15, daily dosing continuously, mean
[12] = 150 mg, Day 1, daily dosing continuously, mean
[13] = 150 mg, Day 15, daily dosing continuously, n = 1
[14] = 250 mg, Day 1, daily dosing continuously, mean
[15] = 250 mg, Day 15, daily dosing continuously, mean
[16] = 350 mg, Day 1, daily dosing continuously, mean
[17] = 350 mg, Day 15, daily dosing continuously, mean
[18] = 500 mg, Day 1, daily dosing continuously, mean
[19] = 500 mg, Day 15, daily dosing continuously, mean

## CN1CC[C@@H](c2c(O)cc(O)c3c(=O)cc(-c4ccc(C(F)(F)F)cc4Cl)oc23)[C@@H]1CO [Voruciclib, (+)-trans-2-(2-Chloro-4-trifluoromethylphenyl)-5,7-dihydroxy-8-(2-hydroxymethyl-1-methylpyrrolidin-3-yl)-chromen-4-one]
[1]; [8]
  best response: 1 PR and 8 SD lasting 2 to 6 months
  disease control rate: 41%
[1]; [9]
  most common AEs: most common AEs involved GI tract
  myelosuppression: no evidence of myelosuppression
[2]
  viability (growth in vitro): decreased viability in all cell lines tested
[3]
  tumor growth inhibition relative to control: > 50%
[4]
  tumor growth inhibition relative to control: > 50%
[5]
  tumor growth inhibition relative to control: > 50%
[6]; 24 pts in 3 dose levels, 10 AML and 14 B-cell malignancies
  GI toxicity or neutropenia: No GI toxicity or neutropenia at doses studied
[6]; AML
  patients with differentiation syndrome: 50%
[7]; [10]
  AUC(0-inf): 3420 ng·h/mL
  Cmax: 125 ng/mL
  Vd/F: 860 L
  half-life: 21.8 h
[7]; 75 mg, Day 1, daily dosing continuously, mean, read-out: AUC0-24
  AUC(0-t): 1730 ng·h/mL
[7]; 75 mg, Day 1, daily dosing continuously, mean, read-out: AUC0-t
  AUC(0-t): 1730 ng·h/mL
[7]; 75 mg, Day 1, daily dosing continuously
  Tmax: 4 h
[7]; [11]
  AUC(0-inf): 27200 ng·h/mL
  Cmax: 331 ng/mL
  Vd/F: 982 L
  half-life: 359 h
[7]; 75 mg, Day 15, daily dosing continuously, mean, read-out: AUC0-24
  AUC(0-t): 5570 ng·h/mL
[7]; 75 mg, Day 15, daily dosing continuously, mean, read-out: AUC0-t
  AUC(0-t): 5570 ng·h/mL
[7]; 75 mg, Day 15, daily dosing continuously
  Tmax: 2 h
[7]; [12]
  AUC(0-inf): 15600 ng·h/mL
  Cmax: 258 ng/mL
  Vd/F: 579 L
  half-life: 39.6 h
[7]; 150 mg, Day 1, daily dosing continuously, mean, read-out: AUC0-24
  AUC(0-t): 4850 ng·h/mL
[7]; 150 mg, Day 1, daily dosing continuously, mean, read-out: AUC0-t
  AUC(0-t): 4850 ng·h/mL
[7]; 150 mg, Day 1, daily dosing continuously
  Tmax: 6 h
[7]; 150 mg, Day 15, daily dosing continuously, mean
  Cmax: 755 ng/mL
[7]; 150 mg, Day 15, daily dosing continuously, mean, read-out: AUC0-24
  AUC(0-t): 16600 ng·h/mL
[7]; 150 mg, Day 15, daily dosing continuously, mean, read-out: AUC0-t
  AUC(0-t): 16600 ng·h/mL
[7]; 150 mg, Day 15, daily dosing continuously
  Tmax: 6 h
[7]; [13]
  AUC(0-inf): 164000 ng·h/mL
  Vd/F: 174 L
  half-life: 132 h
[7]; [14]
  AUC(0-inf): 16400 ng·h/mL
  Cmax: 472 ng/mL
  Vd/F: 766 L
  half-life: 34.4 h
[7]; 250 mg, Day 1, daily dosing continuously, mean, read-out: AUC0-24
  AUC(0-t): 6110 ng·h/mL
[7]; 250 mg, Day 1, daily dosing continuously, mean, read-out: AUC0-t
  AUC(0-t): 6110 ng·h/mL
[7]; 250 mg, Day 1, daily dosing continuously
  Tmax: 4 h
[7]; [15]
  AUC(0-inf): 54500 ng·h/mL
  Cmax: 1050 ng/mL
  Vd/F: 259 L
  half-life: 38.8 h
[7]; 250 mg, Day 15, daily dosing continuously, mean, read-out: AUC0-24
  AUC(0-t): 18500 ng·h/mL
[7]; 250 mg, Day 15, daily dosing continuously, mean, read-out: AUC0-t
  AUC(0-t): 18500 ng·h/mL
[7]; 250 mg, Day 15, daily dosing continuously
  Tmax: 4 h
[7]; [16]
  AUC(0-inf): 134000 ng·h/mL
  Cmax: 623 ng/mL
  Vd/F: 155 L
  half-life: 129 h
[7]; 350 mg, Day 1, daily dosing continuously, mean, read-out: AUC0-24
  AUC(0-t): 10400 ng·h/mL
[7]; 350 mg, Day 1, daily dosing continuously, mean, read-out: AUC0-t
  AUC(0-t): 10400 ng·h/mL
[7]; 350 mg, Day 1, daily dosing continuously
  Tmax: 6 h
[7]; [17]
  AUC(0-inf): 164000 ng·h/mL
  Cmax: 1490 ng/mL
  Vd/F: 77.6 L
  half-life: 72.5 h
[7]; 350 mg, Day 15, daily dosing continuously, mean, read-out: AUC0-24
  AUC(0-t): 26700 ng·h/mL
[7]; 350 mg, Day 15, daily dosing continuously, mean, read-out: AUC0-t
  AUC(0-t): 26700 ng·h/mL
[7]; 350 mg, Day 15, daily dosing continuously
  Tmax: 4 h
[7]; [18]
  AUC(0-inf): 41000 ng·h/mL
  Cmax: 1140 ng/mL
  Vd/F: 72.5 L
  half-life: 24.8 h
[7]; 500 mg, Day 1, daily dosing continuously, mean, read-out: AUC0-24
  AUC(0-t): 16400 ng·h/mL
[7]; 500 mg, Day 1, daily dosing continuously, mean, read-out: AUC0-t
  AUC(0-t): 16400 ng·h/mL
[7]; 500 mg, Day 1, daily dosing continuously
  Tmax: 6 h
[7]; [19]
  AUC(0-inf): 108000 ng·h/mL
  Cmax: 2250 ng/mL
  Vd/F: 51 L
  half-life: 42.4 h
[7]; 500 mg, Day 15, daily dosing continuously, mean, read-out: AUC0-24
  AUC(0-t): 40500 ng·h/mL
[7]; 500 mg, Day 15, daily dosing continuously, mean, read-out: AUC0-t
  AUC(0-t): 40500 ng·h/mL
[7]; 500 mg, Day 15, daily dosing continuously
  Tmax: 2 h
